Results as given in patent US12655114B2, “Ionizable lipid compounds and lipid nanoparticle compositions” (SunVax mRNA Therapeutics Inc., priority 2022, dated 2026).

The molecules below were run on 293T cells (assay: SamRNA-LUC transfection efficiency of LNPs by plate reader (luminescence)). Conditions: LNP-SamRNA-Luc formulated with the lipid, incubated overnight, FIG. 11.
Format: cell-based
Experimental: The LNPs containing SamRNA-GFP (or SamRNA-LUC, 100 ng/well) were added into 96-well plate which was pre-seeded with 293T, C2C12 or MC38 cells. After 24 hours incubation at 37° C. and 5% CO2, the luciferase SamRNA transfection efficiency was measured by plate reader (Perkin Elmer Envision 2104). The GFP SamRNA transfection efficiency was measured by flow cytometry (BD FACSymphony™ A5 SE Cell Analyzer).

SMILES | bioluminescence signals compared with MC3-LNP-SamRNA-Luc
CCCCCCCCCCCCC(=O)N(C(CCCCCCC)CCCCCCC)C(C(=O)NCC(=O)OCC)C1CCN(CC)CC1 (centres unmarked) [P1C1, Ethyl (2-(1-ethylpiperidin-4-yl)-2-(N-(pentadecan-8-yl)tridecanamido)acetyl)glycinate] | stronger bioluminescence signals than MC3-LNP-SamRNA-Luc
CCCCCCCCCCCCCC(=O)N(CC(CCCCCCCC)CCCCCCCCCC)C(C(=O)NCC(=O)OCC)C1CCN(CC)CC1 (centres unmarked) [P1D4, Ethyl (2-(1-ethylpiperidin-4-yl)-2-(N-(2-octyldodecyl)tetradecanamido)acetyl)glycinate] | stronger bioluminescence signals than MC3-LNP-SamRNA-Luc
CCCCCCCCCCCCCCCC(=O)N(C(CCCCCCCC)CCCCCCCC)C(C(=O)NC1=CCCCC1)C1CCN(CC)CC1 (centres unmarked) [P6A2, N-(2-(cyclohex-1-en-1-ylamino)-1-(1-ethylpiperidin-4-yl)-2-oxoethyl)-N-(heptadecan-9-yl)palmitamide] | stronger bioluminescence signals than MC3-LNP-SamRNA-Luc
CCCCCCCCC(CCCCCCCC)N(C(=O)CCCCCCC)C(C(=O)NCCCC)C1CCN(CC)CC1 (centres unmarked) [P14A2, N-(2-(butylamino)-1-(1-ethylpiperidin-4-yl)-2-oxoethyl)-N-(heptadecan-9-yl)octanamide] | stronger bioluminescence signals than MC3-LNP-SamRNA-Luc
CCCCCCCCCCC(=O)N(C(CCCCCCC)CCCCCCC)C(C(=O)NCCCC)C1CCN(CC)CC1 (centres unmarked) [P16B1, N-(2-(butylamino)-1-(1-ethylpiperidin-4-yl)-2-oxoethyl)-N-(pentadecan-8-yl)undecanamide] | stronger bioluminescence signals than MC3-LNP-SamRNA-Luc
CCCCCCCCCCCCCC(=O)N(CC(CCCCCCCC)CCCCCCCCCC)C(C(=O)NC1CCCCC1)C1CCN(CC)CC1 (centres unmarked) [P26D4, N-(2-(cyclohexylamino)-1-(1-ethylpiperidin-4-yl)-2-oxoethyl)-N-(2-octyldodecyl) tetradecanamide] | stronger bioluminescence signals than MC3-LNP-SamRNA-Luc
CCCCCCCCCCCCCCCC(=O)N(C(CCCCCCC)CCCCCCC)C(C(=O)NC1CCCCC1)C1CCN(CC)CC1 (centres unmarked) [P30A1, N-(2-(cyclohexylamino)-1-(1-ethylpiperidin-4-yl)-2-oxoethyl)-N-(pentadecan-8-yl)palmitamide] | stronger bioluminescence signals than MC3-LNP-SamRNA-Luc
CCCCCCCCCCCCCCCCC(=O)N(C(CCCCCCC)CCCCCCC)C(CC1CCN(C)CC1)C(=O)NC1CCCCC1 (centres unmarked) [P30B7, N-(1-(cyclohexylamino)-3-(1-methylpiperidin-4-yl)-1-oxopropan-2-yl)-N-(pentadecan-8-yl)heptadecanamide] | stronger bioluminescence signals than MC3-LNP-SamRNA-Luc
CCCCCCCCCCCCCCCCCC(=O)N(C(CCCCCCC)CCCCCCC)C(CC1CCN(C)CC1)C(=O)NC1CCCCC1 (centres unmarked) [P30C7, N-(1-(cyclohexylamino)-3-(1-methylpiperidin-4-yl)-1-oxopropan-2-yl)-N-(pentadecan-8-yl)stearamide] | stronger bioluminescence signals than MC3-LNP-SamRNA-Luc
CCCCCCCCCCCCCC(=O)N(C(CCCCCCC)CCCCCCC)C(C(=O)NC1CCCCCC1)C1CCN(CC)CC1 (centres unmarked) [P38D1, N-(2-(cycloheptylamino)-1-(1-ethylpiperidin-4-yl)-2-oxoethyl)-N-(pentadecan-8-yl)tetradecanamide] | stronger bioluminescence signals than MC3-LNP-SamRNA-Luc
CCCCCCCCCCCCCC(=O)N(C(CCCCCCC)CCCCCCC)C(CC1CCN(C)CC1)C(=O)NC1CCCCCC1 (centres unmarked) [P38D7, N-(1-(cycloheptylamino)-3-(1-methylpiperidin-4-yl)-1-oxopropan-2-yl)-N-(pentadecan-8-yl)tetradecanamide] | stronger bioluminescence signals than MC3-LNP-SamRNA-Luc
